Measured values reported in patent US20250345392A1, “ANNEXIN A1 LIQUID PHARMACEUTICAL COMPOSITION” (ResoTher Pharma A/S, priority 2022, published 2025).
Read-outs that look alike come from different tables or passages of the source. Ends that are not written are not given here.

Assay: Clinical test in humans, three 30-min i.v. infusions 8 hours apart, plasma PK
Assay type: in vivo
Conditions: human; for time of first measurable concentrations after the start of infusion: each infusion; for half-life / AUC(0-t) / AUC / Cmax / Tmax: in vivo, iv, three 30-min i.v. infusions 8 h apart; for half-life: after the last infusion; for AUC(0-t): read-out: AUC0-24
Method: A total of 8 subjects were included in each group. In each group, 6 subjects received the active treatment and 2 received the placebo. The active treatment was as follows in each group: • Group 9 received three 8 hours apart 30-min Peptide 1 intravenous (i.v.) infusions, wherein each i.v. infusion corresponded to a dose of 50 μg/kg. • Group 10 received three 8 hours apart 30-min Peptide 1 intravenous (i.v.) infusions, wherein each i.v. infusion corresponded to a dose of 100 μg/kg. • Group 11 received three 8 hours apart 30-min Peptide 1 intravenous (i.v.) infusions, wherein each i.v. infusion corresponded to a dose of 140 μg/kg. • Group 12 received three 8 hours apart 30-min Peptide 1 intravenous (i.v.) infusions, wherein each i.v. infusion corresponded to a dose of 200 μg/kg. • Group 13 received three 8 hours apart 30-min Peptide 1 intravenous (i.v.) infusions, wherein each i.v. infusion corresponded to a dose of 250 μg/kg.
The tested liquid pharmaceutical composition has a pH of 8.2-8.4, and comprises the following: • i) 5 mg/ml of Peptide 1, • ii) 4% (w/w) mannitol, • iii) 1% (w/w) sucrose, • iv) 0.01% (w/w) Polysorbate-80, • v) 10 mM glycyl-glycine, and • vi) sterile water for injection.
Venous whole blood samples were collected from all subjects.
Plasma samples were analyzed for Peptide 1 using validated Liquid chromatography—Tandem Mass spectrometry (LC-MS/MS) methods by Charles River Laboratories (CRL).
Derivation of PK parameters were carried out by PhinC Development using Phoenix WinNonlin® (Version Phoenix 8.1—Certara—Princeton—USA). A non-compartmental analysis (NCA) approach was chosen.
For the calculation of the PK parameters and characteristics the following rules were applied: • All the plasma concentrations validated by the bioanalytical laboratory and provided to the pharmacokinetics were used for the PK analysis. • The theoretical PK blood sampling time points were used. • At time points in the lag-time between time zero and the first concentration equal or above limit of quantification (LOQ), concentrations below the LOQ (BLQ) were set to zero (0). • Concentrations BLQ between 2 concentrations equal or above LOQ were considered as missing. • Trailing concentrations (at time point between time of last measurable concentrations and time of last blood sample) BLQ were not used in calculations. • For 3 infusions regimen, each infusion was considered separately and BLQ rules were applied for each infusion. […] If the pre-dose value was greater than 5% of Cmax, the subject was dropped from all statistical evaluations.
AUC0-tau was only calculated if there were at least 3 concentrations above LOQ. • AUC0-24: The area under the plasma concentration-time curve from time zero (pre-dose) to 24 h was calculated as the sum of the 3 AUC0-tau: AUC0-24=AUC0-tau1+AUC0-tau2+AUC0-tau3. • AUC0-t: The area under the concentration-time curve from time zero (pre-dose) to the time of last quantifiable concentration was calculated using a linear trapezoidal method after each administration (AUC0-t1, AUC0-t2 and AUC0-t3, where AUC0-t1 was AUC0-t corresponded to the AUC from pre-dose to the last measurable quantifiable concentration following the first infusion). AUC0-t was only calculated if there were at least 3 concentrations above LOQ. • ke: The terminal plasma elimination rate-constant was estimated from log-linear regression analysis of the terminal phase of the plasma concentration-time profile. The number of points included in the terminal phase was determined by visual inspection of the semi-log plots of the plasma concentration-time profiles. A minimum of 3 data points, including the last measured data point and excluding Cmax, had to be available for the regression. The correlation coefficient for the goodness of the fit of the regression line through the data points (r^2) had to be 0.8000 or higher, for the value to be considered reliable. […]

[1] = Group 12 (three infusions of 200 μg/kg)
[2] = Group 13 (three infusions of 250 μg/kg)
[3] = between 50 μg/kg t.i.d. and 250 μg/kg t.i.d. (dose increased by 5-fold)
[4] = between 100 μg/kg t.i.d. and 250 μg/kg t.i.d. (dose increased by 2.5-fold)
[5] = between 140 μg/kg t.i.d. and 250 μg/kg t.i.d. (dose increased by 1.8-fold)
[6] = between 200 μg/kg t.i.d. and 250 μg/kg t.i.d. (dose increased by 1.25-fold)
[7] = 100 ug/kg, 100 μg/kg each, mean
[8] = 140 ug/kg, 140 μg/kg each, mean
[9] = 200 ug/kg, 200 μg/kg each, mean
[10] = 250 ug/kg, 250 μg/kg each, mean

## AMVSEFLKQAWFIENEEQEYVQTLKSSKGGPGSAVSPYPTFNPSSDV-NH2 [Peptide 1]
[1]
  time up to which concentrations were measurable in all subjects after each infusion: at least 4 h
  time of first measurable concentrations after the start of infusion: 0.16 h
[2]
  time up to which concentrations were measurable in all subjects after each infusion: at least 4 h
  time of first measurable concentrations after the start of infusion: 0.16 h
[3]
  increase of GM of AUC0-24: 4.8 fold
  increase of GM of Global Cmax: 5.4 fold
[4]
  increase of GM of AUC0-24: 2.1 fold
  increase of GM of Global Cmax: 2.2 fold
[5]
  increase of GM of AUC0-24: 1.4 fold
  increase of GM of Global Cmax: 1.6 fold
[6]
  increase of GM of AUC0-24: 0.9 fold
  increase of GM of Global Cmax: 1.0 fold
Between the first and the last infusion, dose range 50-250 μg/kg, no accumulation observed
  GM accumulation ratios on Cmax and AUC0-tau: around 1
50 ug/kg, 50 μg/kg each, GM
  half-life: 1.37 h
  AUC(0-t): 1560 ng·h/mL
50 ug/kg, 50 μg/kg each, GM, read-out: AUC0-t2
  AUC: 416 ng·h/mL
50 ug/kg, 50 μg/kg each, GM, read-out: AUC0-t3
  AUC: 433 ng·h/mL
50 ug/kg, 50 μg/kg each, GM, read-out: AUC0-tau2
  AUC: 511 ng·h/mL
50 ug/kg, 50 μg/kg each, GM, read-out: AUC0-tau3
  AUC: 538 ng·h/mL
50 ug/kg, 50 μg/kg each, GM, read-out: Global Cmax
  Cmax: 420 ng/mL
50 ug/kg, 50 μg/kg each, GM, read-out: Global tmax
  Tmax: 4.12 h
50 ug/kg, 50 μg/kg each, GM, read-out: tmax3
  Tmax: 16.5 h
50 ug/kg, 50 μg/kg each, mean
  half-life: 1.38 h
  AUC(0-t): 1570 ng·h/mL
50 ug/kg, 50 μg/kg each, mean, read-out: AUC0-t1
  AUC: 422 ng·h/mL
50 ug/kg, 50 μg/kg each, mean, read-out: AUC0-t2
  AUC: 420 ng·h/mL
50 ug/kg, 50 μg/kg each, mean, read-out: AUC0-t3
  AUC: 437 ng·h/mL
50 ug/kg, 50 μg/kg each, mean, read-out: AUC0-tau1
  AUC: 513 ng·h/mL
50 ug/kg, 50 μg/kg each, mean, read-out: Cmax3
  Cmax: 398 ng/mL
50 ug/kg, 50 μg/kg each, mean, read-out: Global Cmax
  Cmax: 422 ng/mL
50 ug/kg, 50 μg/kg each, median, read-out: Global tmax
  Tmax: 8.5 h
100 ug/kg, 100 μg/kg each, GM
  half-life: 2.04 h
100 ug/kg, 100 μg/kg each, GM, read-out: AUC0-tau1
  AUC: 1100 ng·h/mL
100 ug/kg, 100 μg/kg each, GM, read-out: AUC0-tau2
  AUC: 1240 ng·h/mL
100 ug/kg, 100 μg/kg each, GM, read-out: AUC0-tau3
  AUC: 1260 ng·h/mL
100 ug/kg, 100 μg/kg each, GM, read-out: Global Cmax
  Cmax: 1020 ng/mL
100 ug/kg, 100 μg/kg each, GM, read-out: Global tmax
  Tmax: 11.8 h
[7]
  half-life: 2.18 h
  AUC(0-t): 3620 ng·h/mL
100 ug/kg, 100 μg/kg each, mean, read-out: AUC0-t2
  AUC: 1130 ng·h/mL
100 ug/kg, 100 μg/kg each, mean, read-out: AUC0-t3
  AUC: 1090 ng·h/mL
100 ug/kg, 100 μg/kg each, median, read-out: Global tmax
  Tmax: 12.5 h
100 ug/kg, 100 μg/kg each, median, read-out: tmax3
  Tmax: 16.5 h
140 ug/kg, 140 μg/kg each, GM, read-out: AUC0-t1
  AUC: 1660 ng·h/mL
140 ug/kg, 140 μg/kg each, GM, read-out: AUC0-t2
  AUC: 1760 ng·h/mL
140 ug/kg, 140 μg/kg each, GM, read-out: AUC0-tau1
  AUC: 1740 ng·h/mL
140 ug/kg, 140 μg/kg each, GM, read-out: AUC0-tau2
  AUC: 1850 ng·h/mL
140 ug/kg, 140 μg/kg each, GM, read-out: AUC0-tau3
  AUC: 1690 ng·h/mL
140 ug/kg, 140 μg/kg each, GM, read-out: Global Cmax
  Cmax: 1400 ng/mL
140 ug/kg, 140 μg/kg each, GM, read-out: Global tmax
  Tmax: 3.29 h
[8]
  half-life: 1.94 h
  AUC(0-t): 5410 ng·h/mL
140 ug/kg, 140 μg/kg each, mean, read-out: AUC0-t1
  AUC: 1690 ng·h/mL
140 ug/kg, 140 μg/kg each, mean, read-out: AUC0-t2
  AUC: 1870 ng·h/mL
140 ug/kg, 140 μg/kg each, mean, read-out: AUC0-t3
  AUC: 1600 ng·h/mL
140 ug/kg, 140 μg/kg each, mean, read-out: AUC0-tau1
  AUC: 1760 ng·h/mL
140 ug/kg, 140 μg/kg each, mean, read-out: AUC0-tau2
  AUC: 1940 ng·h/mL
140 ug/kg, 140 μg/kg each, mean, read-out: Global Cmax
  Cmax: 1430 ng/mL
140 ug/kg, 140 μg/kg each, median, read-out: Global tmax
  Tmax: 8.41 h
140 ug/kg, 140 μg/kg each, median, read-out: tmax3
  Tmax: 16.5 h
200 ug/kg, 200 μg/kg each, GM
  half-life: 1.93 h
  AUC(0-t): 8020 ng·h/mL
200 ug/kg, 200 μg/kg each, GM, read-out: AUC0-t2
  AUC: 2560 ng·h/mL
200 ug/kg, 200 μg/kg each, GM, read-out: AUC0-t3
  AUC: 2690 ng·h/mL
200 ug/kg, 200 μg/kg each, GM, read-out: AUC0-tau1
  AUC: 2590 ng·h/mL
200 ug/kg, 200 μg/kg each, GM, read-out: AUC0-tau2
  AUC: 2650 ng·h/mL
200 ug/kg, 200 μg/kg each, GM, read-out: Global Cmax
  Cmax: 2350 ng/mL
200 ug/kg, 200 μg/kg each, GM, read-out: Global tmax
  Tmax: 2.57 h
[9]
  half-life: 1.94 h
  AUC(0-t): 8120 ng·h/mL
200 ug/kg, 200 μg/kg each, mean, read-out: AUC0-t1
  AUC: 2520 ng·h/mL
200 ug/kg, 200 μg/kg each, mean, read-out: AUC0-t2
  AUC: 2610 ng·h/mL
200 ug/kg, 200 μg/kg each, mean, read-out: AUC0-t3
  AUC: 2720 ng·h/mL
200 ug/kg, 200 μg/kg each, mean, read-out: AUC0-tau1
  AUC: 2620 ng·h/mL
200 ug/kg, 200 μg/kg each, mean, read-out: AUC0-tau2
  AUC: 2690 ng·h/mL
200 ug/kg, 200 μg/kg each, mean, read-out: AUC0-tau3
  AUC: 2810 ng·h/mL
200 ug/kg, 200 μg/kg each, median, read-out: Global tmax
  Tmax: 4.5 h
200 ug/kg, 200 μg/kg each, median, read-out: tmax3
  Tmax: 16.5 h
250 ug/kg, 250 μg/kg each, GM
  AUC(0-t): 7490 ng·h/mL
250 ug/kg, 250 μg/kg each, GM, read-out: AUC0-t3
  AUC: 2410 ng·h/mL
250 ug/kg, 250 μg/kg each, GM, read-out: AUC0-tau1
  AUC: 2590 ng·h/mL
250 ug/kg, 250 μg/kg each, GM, read-out: AUC0-tau2
  AUC: 2390 ng·h/mL
250 ug/kg, 250 μg/kg each, GM, read-out: Global Cmax
  Cmax: 2260 ng/mL
250 ug/kg, 250 μg/kg each, GM, read-out: Global tmax
  Tmax: 3.69 h
250 ug/kg, 250 μg/kg each, GM, read-out: tmax1
  Tmax: 0.46 h
[10]
  half-life: 1.88 h
  AUC(0-t): 7550 ng·h/mL
250 ug/kg, 250 μg/kg each, mean, read-out: AUC0-t1
  AUC: 2540 ng·h/mL
250 ug/kg, 250 μg/kg each, mean, read-out: AUC0-t2
  AUC: 2350 ng·h/mL
